Assay results reported in patent publication US9593149B2, “Amylin and calcitonin receptor agonist” (Novo Nordisk A/S, priority 2014, dated 2017).
Peptide text beside a SMILES is read from it.

Columns and labels:
[1] = Assay (IV) determination of solubility; type: physicochemical
Experimental: Assay (IV)—Determination of Solubility
The mimylin peptide was dissolved in water at ˜500 nmol/ml and mixed 1:1 with a series of buffers (100 mM glycylglycine pH 3.0, 100 mM glycylglycine pH 4.0, 100 mM glycylglycine pH 5.0, 100 mM bistrispropane pH 6.0, 100 mM bistrispropane pH 6.5, 100 mM bistrispropane pH 7.0, 100 mM bistrispropane pH 7.5, 100 mM bistrispropane pH 8.0).

[2] = molecular target: T1, human amylin 3(a) receptor (human calcitonin receptor + RAMP-3), BHK570 cells (Homo sapiens, UniProt O60896+P30988); experiment: Assay (II)a functional CRE-luciferase assay with albumin, human amylin receptor; type: cell-based; settings: Tested with HSA; read-out: hAmylin-R funct. EC50
T1 construct: host or cells: BHK570
Description: Assay(II)a—Human Calcitonin and Amylin Receptor Assay
1. Luciferase Assay Outline
Activation of calcitonin and amylin (co-expression of calcitonin receptor and receptor activity modifying proteins (RAMP)) receptors lead to increased intracellular concentrations of cAMP. Consequently, transcription is activated by promoters containing multiple copies of the cAMP response element (CRE). It is thus possible to measure amylin activity by the use of a CRE luciferase reporter gene introduced into BHK cells also expressing calcitonin or amylin receptors.
2. Construction of Calcitonin (a)—and Amylin 3(a)—Receptor/CRE-Luc Cell Line.
A BHK570 cell line was stably transfected with the human calcitonin receptor and a CRE-responsive luciferase reporter gene. The cell line was further transfected with RAMP-3, using standard methods. This turns the calcitonin receptor into an amylin 3(a) receptor. Methotrexate, Neomycin, and Hygromycin are selection markers for luciferase, the calcitonin receptor, and RAMP-3, respectively.
To perform activity assays, BHK calcitonin (a) receptor- or amylin 3(a)-receptor/CRE-luc cells were seeded in white 96 well culture plates at a density of about 20.000 cells/well. […] After incubation overnight at 37° C. and 5% CO2, the growth medium was replaced by 50 μl/well assay medium (DMEM (without phenol red), Glutamax™, 10% FBS, and 10 mM Hepes, pH 7.4). Further, 50 μl/well of standard or sample in assay buffer were added.
After 3 hours incubation at 37° C. and 5% CO2, the assay medium with standard or sample were removed and replaced by 100 μl/well PBS. Further, 100 μl/well LucLite™ was added. The plates were sealed and incubated at room temperature for 30 minutes. Finally, luminescence was tested on a TopCounter (Packard) in SPC (single photon counting) mode.

[3] = molecular target: T2, human calcitonin receptor (Homo sapiens, UniProt P30988); experiment: Assay (VII) binding to the human calcitonin receptor (membrane, SPA); settings: membranes, 125I-Calcitonin; read-out: hCT-R binding IC50
T2 construct: expressed in transfected cells; host or cells: BHK tk'ts 13
T2 sequence (P30988 25-474): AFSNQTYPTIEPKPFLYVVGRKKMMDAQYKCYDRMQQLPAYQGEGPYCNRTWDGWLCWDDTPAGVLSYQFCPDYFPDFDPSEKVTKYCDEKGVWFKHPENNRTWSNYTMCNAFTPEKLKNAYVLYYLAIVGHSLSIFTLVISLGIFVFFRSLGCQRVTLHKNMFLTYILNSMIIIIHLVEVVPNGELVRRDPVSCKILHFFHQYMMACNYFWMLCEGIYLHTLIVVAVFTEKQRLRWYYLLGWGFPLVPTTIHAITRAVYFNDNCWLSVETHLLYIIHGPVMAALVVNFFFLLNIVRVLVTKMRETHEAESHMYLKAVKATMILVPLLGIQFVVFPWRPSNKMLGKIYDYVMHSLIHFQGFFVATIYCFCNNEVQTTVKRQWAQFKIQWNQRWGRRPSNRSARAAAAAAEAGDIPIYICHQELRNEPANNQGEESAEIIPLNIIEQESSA
Experimental: Assay (VII)—Determination of Binding to the Human Calcitonin Receptor (Membrane)
The binding assay was performed using scintillation proximity assay (SPA) beads (RPNQ0001) from PerkinElmer® and cell membranes prepared from a BHK tk'ts 13 cell line was stably transfected with the human calcitonin receptor and a CRE-responsive luciferase reporter gene. Membranes were prepared in the following way; the cells were rinsed with PBS and incubated with Versene for approximately 5 min before harvesting. The cells were flushed with PBS and the cell-suspension was centrifuged for 5 min at 1000 rpm. Cells were homogenized in a buffer containing 20 mM Na-HEPES and 10 mM EDTA (pH 7.4) and centrifuged at 20.000 rpm for 15 min. The resulting pellet was resuspended, homogenized and centrifuged (20.000 rpm, 15 min) in a buffer containing 20 mM Na-HEPES and 0.1 mM EDTA (pH 7.4, buffer 2). The resulting pellet was resuspended in buffer 2 and protein concentration was tested (BCA protein Assay, Pierce). The homogenate was kept cold during the whole procedure. The membranes were kept at −80° C. until use. Assay was performed in a 384 well Optiplate (PerkinElmer®) in a total volume of 40 ul. Membranes were mixed with SPA beads. Final concentration of membranes 35 ng/μL final and Final concentration of SPA beads was 0.05 mg/well. Test-compounds were dissolved in DMSO and further diluted in assay buffer (50 mM Hepes, pH 7.4, 1 mM CaCl2, 5 mM MgCl2, 0.1% OA and 0.02% Tween20). Radioligand ^125I-Calcitonin was dissolved in assay buffer and added to the Optiplate at a final concentration of 75 pM/well (approx. 30.000 cpm/10 ul). The final mixture was incubated for 120 min with shaking at 400 rpm at 25° C. prior to centrifugation (1500 rpm, 10 min). Samples were analyzed on TopCounter™ (Packard). The IC50 was calculated using (one site binding competition analysis) GraphPad Prism5 as a measure of receptor affinity.

[4] = molecular target: T3, human calcitonin (a) receptor, BHK570 cells (Homo sapiens, UniProt P30988); experiment: Assay (II)b functional CRE-luciferase assay without albumin, human calcitonin receptor; type: cell-based; settings: Tested without HSA; read-out: hCTR funct. EC50
T3 construct: host or cells: BHK570
T3 sequence (P30988 25-474): T2 sequence (P30988 25-474)
Method in brief: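 BHK570 cells stably expressing human calcitonin receptor with CRE-luciferase reporter, plus RAMP-3 for the amylin 3(a) line. Cells stimulated 3 hours at 37 °C in albumin-free assay medium (0.1% ovalbumin, 10 mM Hepes pH 7.4); cAMP-driven luciferase read by luminescence.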

[5] = molecular target: T1, human amylin 3(a) receptor (human calcitonin receptor + RAMP-3), BHK570 cells; experiment: Assay (II)b functional CRE-luciferase assay without albumin, human amylin receptor; type: cell-based; settings: Tested without HSA; read-out: hAmylin-R funct. EC50
Method in brief: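 Agonism measured as CRE-driven luciferase luminescence after 3 h sample exposure at 37 °C, without albumin (0.1% ovalbumin, Hepes pH 7.4 medium). Reporter cells: BHK570 carrying human calcitonin receptor, co-transfected with RAMP-3 to form the amylin 3(a) receptor.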

[6] = molecular target: T4, human calcitonin receptor, BHK tk'ts 13 cells (Homo sapiens, UniProt P30988); experiment: Assay (VIIa) binding to the human calcitonin receptor (whole cell); settings: read-out: hCT-R binding IC50
T4 construct: expressed in transfected cells; host or cells: BHK tk'ts 13
T4 sequence (P30988 25-474): T2 sequence (P30988 25-474)
Experimental: Assay (VIIa)—Determination of Binding to the Human Calcitonin Receptor (Whole Cell Binding)
The binding assay was performed using a BHK tk'ts 13 cell line was stably transfected with the human calcitonin receptor, and a CRE-responsive luciferase reporter gene.
The day before the assay the cells were Seeded into Poly-D-Lysin coated 384W Opaque White, BD BioCoat plates (10000 cells/well) and Incubated overnight at 37° C., 5% CO2, 95% humidity. Then, the cells were washed in HBSS (4° C.), and incubated overnight at 4° C. in a binding buffer containing test compounds, 50 pM [125I]-human calcitonin, media w/o phenol red, 500 ml 0.1% ovalbumin (5 ml 10% ovalbumin) 10 mM Hepes (5 ml 1M) 1× Glutamin (5 ml 100×) 1% P/S (5 ml 100%) Complete (1 tablet/50 ml) 0.1% Pluronic F68®. The morning after, the plates were washed three times in HBSS (4° C.), and lyzed in Lysis buffer (0.1 M NaOH), 1% SDS. Scintillation cocktail (MicroScint40®) was added and the plates were shaken at 500 rpm for a short period. The plate was incubated at room temperature in the dark for 1 hour and Read on a TopCounter™ (Packard). The IC50 was calculated using (one site binding competition analysis) GraphPad Prism5 as a measure of receptor affinity. Assay (VIII)—Determination of Binding to the Rat Calcitonin Receptor

[7] = molecular target: T5, human amylin receptor (human calcitonin receptor + human RAMP3), BHK tk'ts 13 cells (Homo sapiens, UniProt O60896+P30988); experiment: Assay (Va) binding to the human amylin receptor (whole cell); settings: read-out: hAmylin-R binding IC50
T5 construct: expressed in transfected cells; host or cells: BHK tk'ts 13
Experimental: The day before the assay the cells were Seeded into Poly-D-Lysin coated 384W Opaque White, BD BioCoat plates (10000 cells/well) and Incubated overnight at 37° C., 5% CO2, 95% humidity.

T1 sequence (O60896 24-148, one chain of several): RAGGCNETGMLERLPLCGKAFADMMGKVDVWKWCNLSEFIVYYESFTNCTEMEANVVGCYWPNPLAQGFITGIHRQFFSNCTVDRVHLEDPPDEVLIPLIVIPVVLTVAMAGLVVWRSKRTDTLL
T5 sequence (O60896 24-148, one chain of several): as above

Structure (SMILES) | solubility at 18 h ([1]; bistrispropane buffer, pH 6.5) | solubility at 18 h ([1]; bistrispropane buffer, pH 7.5) | solubility at 18 h ([1]; bistrispropane buffer, pH 6.0) | solubility at 18 h ([1]; bistrispropane buffer, pH 7.0) | solubility at 18 h ([1]; bistrispropane buffer, pH 8.0) | solubility at 18 h ([1]; glycylglycine buffer, pH 3.0) | solubility at 18 h ([1]; glycylglycine buffer, pH 4.0) | solubility at 18 h ([1]; glycylglycine buffer, pH 5.0) | EC50 [2] | IC50 [3] | EC50 [4] | EC50 [5] | IC50 [6] | IC50 [7]
CC(=O)N[C@@H](C)C(=O)N[C@@H](CO)C(=O)N[C@@H](CCC(=O)O)C(=O)N[C@@H](CC(C)C)C(=O)N[C@@H](CO)C(=O)N[C@H](C(=O)N[C@@H](C)C(=O)N[C@@H](C)C(=O)N[C@@H](CC(C)C)C(=O)NCC(=O)N[C@@H](CCCNC(=N)N)C(=O)N[C@@H](CC(C)C)C(=O)N[C@@H](CO)C(=O)N[C@@H](C)C(=O)N[C@@H](CCC(=O)O)C(=O)N[C@@H](CC(C)C)C(=O)N[C@@H](Cc1c[nH]cn1)C(=O)N[C@@H](CCC(=O)O)C(=O)N[C@@H](CC(C)C)C(=O)N[C@@H](C)C(=O)N[C@H](C(=O)N[C@@H](CC(C)C)C(=O)N1CCC[C@H]1C(=O)N[C@@H](CCCNC(=N)N)C(=O)N[C@H](C(=O)N[C@@H](CCCCNC(=O)CC[C@H](NC(=O)CCCCCCCCCCCCCCCCCCC(=O)O)C(=O)O)C(=O)N[C@H](C(=O)NCC(=O)N[C@@H](CO)C(=O)NCC(=O)N[C@@H](CO)C(=O)N1CCC[C@H]1C(N)=O)[C@@H](C)O)[C@@H](C)O)[C@@H](C)O)[C@@H](C)O [compound 71, [N-terminal(acetyl), des1, 27K(C20 diacid-gGlu), 30S, 31G]mimylin] | ≥ 200 µM | ≥ 200 µM | ≥ 200 µM | ≥ 200 µM | ≥ 200 µM | ≥ 200 µM | ≥ 200 µM | ≥ 200 µM | 0.164 nM | 0.07 nM | 0.03 nM | 0.053 nM | – | –
CC(C)C[C@H](NC(=O)[C@H](C)NC(=O)[C@H](C)NC(=O)[C@@H](NC(=O)[C@H](CO)NC(=O)[C@H](CC(C)C)NC(=O)[C@H](CCC(=O)O)NC(=O)[C@H](CO)NC(=O)[C@H](C)NC(=O)[C@@H](N)CCC(=O)O)[C@@H](C)O)C(=O)NCC(=O)N[C@@H](CCCNC(=N)N)C(=O)N[C@@H](CC(C)C)C(=O)N[C@@H](CO)C(=O)N[C@@H](C)C(=O)N[C@@H](CCC(=O)O)C(=O)N[C@@H](CC(C)C)C(=O)N[C@@H](Cc1c[nH]cn1)C(=O)N[C@@H](CCC(=O)O)C(=O)N[C@@H](CC(C)C)C(=O)N[C@@H](C)C(=O)N[C@H](C(=O)N[C@@H](CC(C)C)C(=O)N1CCC[C@H]1C(=O)N[C@@H](CCCNC(=N)N)C(=O)N[C@H](C(=O)N[C@@H](CCC(=O)O)C(=O)N[C@H](C(=O)NCC(=O)N[C@@H](CO)C(=O)NCC(=O)N[C@@H](CO)C(=O)N1CCC[C@H]1C(N)=O)[C@@H](C)O)[C@@H](C)O)[C@@H](C)O [22bb, H—EASELSTAALGRLSAELHELATLPRTETGSGSP—NH2] (H-EASELSTAALGRLSAELHELATLPRTETGSGSP-NH2) | – | – | – | – | – | – | – | – | – | – | 0.002 nM | – | 0.481 nM | 0.469 nM
CC(C)C[C@H](NC(=O)[C@H](C)NC(=O)[C@H](C)NC(=O)[C@@H](NC(=O)[C@H](CO)NC(=O)[C@H](CC(C)C)NC(=O)[C@H](CCC(=O)O)NC(=O)[C@H](CO)NC(=O)[C@H](C)NC(=O)[C@@H](N)CCC(=O)O)[C@@H](C)O)C(=O)NCC(=O)N[C@@H](CCCNC(=N)N)C(=O)N[C@@H](CC(C)C)C(=O)N[C@@H](CO)C(=O)N[C@@H](C)C(=O)N[C@@H](CCC(=O)O)C(=O)N[C@@H](CC(C)C)C(=O)N[C@@H](Cc1c[nH]cn1)C(=O)N[C@@H](CCC(=O)O)C(=O)N[C@@H](CC(C)C)C(=O)N[C@@H](C)C(=O)N[C@H](C(=O)N[C@@H](CC(C)C)C(=O)N1CCC[C@H]1C(=O)N[C@@H](CCCNC(=N)N)C(=O)N[C@H](C(=O)N[C@@H](CCC(=O)O)C(=O)N[C@H](C(=O)NCC(=O)N1CCC[C@H]1C(=O)N[C@@H](CCC(=O)O)C(=O)N[C@@H](CO)C(=O)N1CCC[C@H]1C(N)=O)[C@@H](C)O)[C@@H](C)O)[C@@H](C)O [Ex. #1, mimylin] (H-EASELSTAALGRLSAELHELATLPRTETGPESP-NH2) | – | – | – | – | – | – | – | – | – | – | – | 0.003 nM | 0.431 nM | 0.511 nM
